Test system: the 3 viral strains (pooled HN)
Set-up: species or system BALB/c mice
Settings: mouse, in vivo

Substance: N-palmitoyl D-erythro sphingosyl carbamoyl-spermine [CCS]
- immunogenicity of CCS alone compared to CCS/Chol as the vaccine carrier: no difference in immunogenicity
